Data as given in patent publication US12336995B2, “Combination therapies” (Mirati Therapeutics, Inc., priority 2018, dated 2025).

Legend:
LU6405 cells (PDX model) = assay: In vivo PDX model, Compound 478 and Afatinib (Table 4c); conditions: LU6405, Afatinib 12.5 mg/kg, single or combined
Description: (§1) Immunocompromised nude/nude mice were inoculated in the right hind flank with cells or patient derived tumor samples harboring a KRas G12C mutation. […] The first group was administered vehicle only. […] The fourth group was administered the single agent dose of the KRas G12C inhibitor in combination with the single agent dose of the pan ErbB family inhibitor. […] Tumor volumes were measured using a caliper every two-three days and tumor volumes were calculated by the formula: 0.5×(Length×Width)^2.
(§2) Tumor volumes were measured at pre-specified days set forth below.

H2122 cells = assay: In vivo tumor model, Compound 478 and Afatinib (Table 4a); conditions: for Average Tumor Volumes: H2122, Afatinib 12.5 mg/kg, single or combined
Description: as §1, §2

KYSE-410 cells = assay: In vivo tumor model, Compound 478 and Afatinib (Table 4b); conditions: KYSE-410, Afatinib 12.5 mg/kg, single or combined
Description: as §1, §2

[1] = Day 11 post implant (treatment start), p.o. daily: Compound 478 100 mg/kg
[2] = Day 14 post implant, p.o. daily from Day 11: Compound 478 100 mg/kg
[3] = Day 18 post implant, p.o. daily from Day 11: Compound 478 100 mg/kg
[4] = Day 21 post implant, p.o. daily from Day 11: Compound 478 100 mg/kg
[5] = Day 25 post implant, p.o. daily from Day 11: Compound 478 100 mg/kg
[6] = Day 28 post implant, p.o. daily from Day 11: Compound 478 100 mg/kg
[7] = Day 32 post implant, p.o. daily from Day 11: Compound 478 100 mg/kg
[8] = Day 34 post implant, p.o. daily from Day 11: Compound 478 100 mg/kg

## CN(C)C/C=C/C(=O)Nc1cc2c(Nc3ccc(F)c(Cl)c3)ncnc2cc1OC1CCOC1 (centres unmarked) [Afatinib, (E)-N-(4-((3-chloro-4-fluorophenyl)amino)-7-((tetrahydrofuran-3-yl)oxy)quinazolin-6-yl)-4-(dimethylamino)but-2-enamide, reference compound]
LU6405 cells (PDX model); [1]
  Average Tumor Volumes: 257.48 mm^3
LU6405 cells (PDX model); [2]
  Average Tumor Volumes: 371.98 mm^3
LU6405 cells (PDX model); [3]
  Average Tumor Volumes: 585.54 mm^3
LU6405 cells (PDX model); [4]
  Average Tumor Volumes: 775.75 mm^3
LU6405 cells (PDX model); [5]
  Average Tumor Volumes: 1056.23 mm^3
LU6405 cells (PDX model); [6]
  Average Tumor Volumes: 1197.31 mm^3
LU6405 cells (PDX model); [7]
  Average Tumor Volumes: 1540.74 mm^3
LU6405 cells (PDX model); [8]
  Average Tumor Volumes: 1655.49 mm^3
H2122 cells; [1]
  Average Tumor Volumes: 324.86 mm^3
H2122 cells; Day 13 post implant, p.o. daily from Day 11: Compound 478 100 mg/kg
  Average Tumor Volumes: 429.76 mm^3
H2122 cells; Day 15 post implant, p.o. daily from Day 11: Compound 478 100 mg/kg
  Average Tumor Volumes: 573.36 mm^3
H2122 cells; [3]
  Average Tumor Volumes: 694.70 mm^3
H2122 cells; Day 20 post implant, p.o. daily from Day 11: Compound 478 100 mg/kg
  Average Tumor Volumes: 850.85 mm^3
H2122 cells; Day 22 post implant, p.o. daily from Day 11: Compound 478 100 mg/kg
  Average Tumor Volumes: 931.53 mm^3
H2122 cells; [5]
  Average Tumor Volumes: 1153.42 mm^3
H2122 cells; Day 27 post implant, p.o. daily from Day 11: Compound 478 100 mg/kg
  Average Tumor Volumes: 1307.50 mm^3
H2122 cells; Day 29 post implant, p.o. daily from Day 11: Compound 478 100 mg/kg
  Average Tumor Volumes: 1137.09 mm^3
H2122 cells; [7]
  Average Tumor Volumes: 1403.33 mm^3
H2122 cells; [8]
  Average Tumor Volumes: 1830.13 mm^3
H2122 cells; H2122 tumor bearing mice, Day 22 (Treatment Day 10), single agent, Compound 478 100 mg/kg, afatinib 12.5 mg/kg p.o. daily
  tumor growth inhibition: 41%
KYSE-410 cells; [1]
  Average Tumor Volumes: 311.84 mm^3
KYSE-410 cells; [2]
  Average Tumor Volumes: 199.20 mm^3
KYSE-410 cells; Day 16 post implant, p.o. daily from Day 11: Compound 478 100 mg/kg
  Average Tumor Volumes: 135.30 mm^3
KYSE-410 cells; [3]
  Average Tumor Volumes: 114.40 mm^3
KYSE-410 cells; [4]
  Average Tumor Volumes: 114.08 mm^3
KYSE-410 cells; Day 23 post implant, p.o. daily from Day 11: Compound 478 100 mg/kg
  Average Tumor Volumes: 132.92 mm^3
KYSE-410 cells; [5]
  Average Tumor Volumes: 141.90 mm^3
KYSE-410 cells; [6]
  Average Tumor Volumes: 144.36 mm^3
KYSE-410 cells; Day 30 post implant, p.o. daily from Day 11: Compound 478 100 mg/kg
  Average Tumor Volumes: 166.46 mm^3
KYSE-410 cells; [7]
  Average Tumor Volumes: 163.92 mm^3
KYSE-410 cells; Day 35 post implant, p.o. daily from Day 11: Compound 478 100 mg/kg
  Average Tumor Volumes: 181.68 mm^3
KYSE-410 cells; Day 37 post implant, p.o. daily from Day 11: Compound 478 100 mg/kg
  Average Tumor Volumes: 198.34 mm^3
